Results on 35 compounds are retold here after ChEMBL document CHEMBL2150966, “Discovery of a novel series of potent and orally bioavailable phosphoinositide 3-kinase γ inhibitors” (J Med Chem, 2012).

≈ marks a conversion by molar mass, not a printed value.

The nature of data set [1]: Plasma concentration in C57BL6 mouse at 100 mg/kg, po after 1 hr. It counts as ADME, organism-based. Further details: dose 100 mg/kg, route oral.
Data set [2] can be described thus: Plasma concentration in C57BL6 mouse at 100 mg/kg, po after 4 hr. Further details: dose 100 mg/kg, route oral. Format: ADME, organism-based.
Data set [3] can be described thus: Kinetic solubility of compound in PBS at pH 7.4. Format: physicochemical. Conditions: read-out: Kinetic_solubility.
Data set [4] is described as follows: Lipophilicity of compound, Log D. It counts as physicochemical. Conditions: octanol/water.
Data set [5] can be described thus: Drug metabolism in mouse liver microsome assessed as compound oxidation after 30 mins. It counts as ADME. Conditions: liver microsomes, read-out: Drug metabolism. A general note: Liver microsomes are a subcellular fraction often used to study metabolism.
Data set [6] is described as follows: Half life in Sprague-Dawley rat at 5 mg/kg, po. Format: ADME, organism-based. Further details: dose 5 mg/kg, route oral. Conditions: in vivo.
Data set [7] is described as follows: AUC (0 to infinity) in Sprague-Dawley rat at 5 mg/kg, po. Format: ADME, organism-based. Further details: time infinity, dose 5 mg/kg, route oral. Conditions: plasma.
A short description of data set [8]: Oral bioavailability Sprague-Dawley rat at 5 mg/kg. It counts as ADME, organism-based. The following applies: in vivo.
Data set [9] is described as follows: Apparent permeability across apical to basolateral side of MDCK cells. Format: ADME, cell-based, Canis lupus familiaris. Conditions: dog.
Data set [10] in a line: in vivo. Conditions: BALB/c, mouse, plasma, po, 100 mg/kg.
A short description of data set [11]: Cmax in Sprague-Dawley rat at 5 mg/kg, po. Format: ADME, organism-based. Also on record: dose 5 mg/kg, route oral. The following applies: in vivo.

As for `COc1ccc(-c2cccc(S(=O)(=O)N3CCN(c4nccnc4-c4ccc(OC)cc4)CC3)c2)cc1`, in data set [1], the concentration at 1 h was 0.5 µM. Further, the concentration at 4 h in [2] stood at 0.1 µM.

For `CNC(=O)c1nc(-c2cccc(-c3nnn[nH]3)c2)cnc1N`, the solubility kinetic in [3] was 424 µM (≈ 126 µg/mL). Moreover, the logD (usually lipophilicity at a set pH, counting ionised and neutral species) in [4] turned out to be 0.47.

As to `CC(C)c1ccc(-c2nccnc2N2CCN(S(=O)(=O)c3cccc(-c4cnc(N)nc4)c3)CC2)cc1`, the metabolised at 0.5 h in data set [5] was determined as 79%. Also, the concentration at 1 h in data set [1] came to 0.7 µM. This compound also had a concentration at 4 h in data set [2] of 0.1 µM.

With `CC(C)c1ccc(-c2ncccc2N2CCN(S(=O)(=O)c3cccc(-c4cnc(N)nc4)c3)CC2)cc1`, the half-life (in general, the time needed for the level to fall by half in the phase considered) in [6] is 1.82 h. The AUC(0-inf) (as a rule, total exposure, with the tail of the curve extrapolated) in [7] was determined as 0.9 µM·h. Also, the metabolised at 0.5 h in data set [5] was 37%. In addition, the solubility kinetic in [3] is less than 5 µM. This compound gave a concentration at 1 h in data set [1] of 12.9 µM. The bioavailability (as a rule, dose-corrected exposure relative to a reference, in per cent) in data set [8] was 12.7%. This compound showed a concentration at 4 h in data set [2] of 3.2 µM. This compound also displayed a logD in [4] of more than 4.

For `CNC(=O)c1nc(-c2cccc(S(=O)(=O)Nc3ccccc3)c2)cnc1N`, in [9], the Papp A→B (as a rule, the apparent permeability from the apical to the basolateral side of a cell layer) worked out at 10 ×10⁻⁶ cm/s.

With `CNC(=O)c1nc(-c2ccc(Cl)c(S(=O)(=O)Nc3ccccc3)c2)cnc1N`, the Papp A→B in data set [9] turned out to be 10 ×10⁻⁶ cm/s.

Consider `CNC(=O)c1nc(-c2ccc(Cl)c(S(=O)(=O)NC)c2)cnc1N`, for which the Papp A→B in data set [9] amounted to 10 ×10⁻⁶ cm/s.

On to `CNC(=O)c1nc(-c2ccc(Cl)c(S(N)(=O)=O)c2)cnc1N`, for which the Papp A→B in data set [9] came out at 10 ×10⁻⁶ cm/s.

`CNC(=O)c1nc(-c2ccc(Cl)c(S(=O)(=O)NCC(F)(F)F)c2)cnc1N`: the solubility kinetic in data set [3] stood at 211 µM (≈ 89.4 µg/mL). Also, the Papp A→B in [9] was found to be 10 ×10⁻⁶ cm/s.

`CNC(=O)c1nc(-c2ccc(OC)c(S(=O)(=O)Nc3ccccc3)c2)cnc1N`: the Papp A→B in data set [9] was determined as 10 ×10⁻⁶ cm/s.

As to `CNC(=O)c1nc(-c2ccc(F)c(S(=O)(=O)Nc3ccccc3)c2)cnc1N`, in data set [9], the Papp A→B was 10 ×10⁻⁶ cm/s.

With `CNC(=O)c1nc(-c2cnc(N)c(S(=O)(=O)Nc3ccccc3)c2)cnc1N`, the apparent permeability from apical to basolateral (Papp A→B) in data set [9] stood at 10 ×10⁻⁶ cm/s.

For the compound `CNC(=O)c1nc(-c2cccc(NS(=O)(=O)c3ccccc3)c2)cnc1N`, the Papp A→B in data set [9] stood at 10 ×10⁻⁶ cm/s.

For the compound `CNC(=O)c1nc(-c2cccc(NS(=O)(=O)c3cccc(Cl)c3)c2)cnc1N`, the apparent permeability from apical to basolateral (Papp A→B) in [9] is 10 ×10⁻⁶ cm/s.

Consider `CNC(=O)c1nc(-c2ccc(Cl)c(NS(=O)(=O)c3cccc(Cl)c3)c2)cnc1N`, for which the apical-to-basolateral permeability (Papp A→B) in data set [9] was 10 ×10⁻⁶ cm/s.

With `CNC(=O)c1nc(-c2ccc(Cl)c(S(=O)(=O)Nc3cccc(C)c3)c2)cnc1N`, the apparent permeability from apical to basolateral (Papp A→B) in data set [9] turned out to be 10 ×10⁻⁶ cm/s.

On to `CNC(=O)c1nc(-c2ccc(Cl)c(S(=O)(=O)Nc3cccc(F)c3)c2)cnc1N`, for which the concentration at 1 h in [1] was determined as 1.6 µM. In data set [2], this compound displayed a concentration at 4 h of 1 µM. Further, the Papp A→B in data set [9] was 10 ×10⁻⁶ cm/s.

As to `CNC(=O)c1nc(-c2ccc(Cl)c(S(=O)(=O)Nc3cccc(OC)c3)c2)cnc1N`, the concentration at 1 h in data set [1] was 0.7 µM. In addition, the concentration at 4 h in data set [2] came out at 0.09 µM. The Papp A→B in data set [9] stood at 10 ×10⁻⁶ cm/s.

Consider `CNC(=O)c1nc(-c2ccc(Cl)c(S(=O)(=O)Nc3cccc(C(F)(F)F)c3)c2)cnc1N`, for which, in data set [1], the concentration at 1 h was 1.7 µM. Besides, the concentration at 4 h in [2] turned out to be 0.4 µM. Further, the Papp A→B in data set [9] was 10 ×10⁻⁶ cm/s.

Turning to `CNC(=O)c1nc(-c2ccc(Cl)c(S(=O)(=O)Nc3cccc(Cl)c3)c2)cnc1N`, the solubility kinetic in [3] is less than 1 µM. Also, the concentration at 1 h in data set [1] came to 1.3 µM. In data set [2], this compound yielded a concentration at 4 h of 0.1 µM. Also, the Papp A→B in data set [9] was 10 ×10⁻⁶ cm/s.

Consider `CNC(=O)c1nc(-c2ccc(Cl)c(S(=O)(=O)Nc3ccccc3Cl)c2)cnc1N`, for which the solubility kinetic in [3] was 24 µM (≈ 10.9 µg/mL). Also, the concentration at 1 h in [1] was found to be 59.1 µM. This compound came in with a concentration at 4 h in data set [2] of 9.6 µM. Further, the Papp A→B in [9] turned out to be 10 ×10⁻⁶ cm/s.

Turning to `CNC(=O)c1nc(-c2ccc(Cl)c(S(=O)(=O)Nc3ccc(Cl)cc3)c2)cnc1N`, the Papp A→B in [9] was determined as 10 ×10⁻⁶ cm/s.

In turn, `CNC(=O)c1nc(-c2cccc(S(=O)(=O)Nc3cccc(Cl)c3)c2)cnc1N` gave a concentration at 1 h in data set [1] of 0.6 µM. The compound further showed a concentration at 4 h in data set [2] of 0.4 µM. Besides, the Papp A→B in data set [9] amounted to 10 ×10⁻⁶ cm/s.

With `CNC(=O)c1nc(-c2ccc(Cl)c(S(=O)(=O)Nc3ccc(F)cc3Cl)c2)cnc1N`, the concentration at 4 h in data set [10] came to 20.3 µM; in data set [2], 19.2 µM. The same compound returned a concentration at 1 h in [1] of 64.8 µM. For the same compound, the Papp A→B in [9] was found to be 10 ×10⁻⁶ cm/s.

Turning to `CNC(=O)c1nc(-c2ccc(Cl)c(S(=O)(=O)Nc3cccc(F)c3Cl)c2)cnc1N`, in data set [1], the concentration at 1 h was found to be 237 µM. The concentration at 4 h in [2] was determined as 39.8 µM. Further, the Papp A→B in data set [9] came to 10 ×10⁻⁶ cm/s.

For `CNC(=O)c1nc(-c2ccc(Cl)c(S(=O)(=O)Nc3ccc(Cl)cc3Cl)c2)cnc1N`, the concentration at 4 h was found to be 6.5 µM in data set [10] and 8.6 µM in data set [2]. This compound also gave a concentration at 1 h in [1] of 21.3 µM. In addition, the Papp A→B in data set [9] was 10 ×10⁻⁶ cm/s.

Take `CNC(=O)c1nc(-c2ccc(Cl)c(S(=O)(=O)Nc3cccc(Cl)c3Cl)c2)cnc1N`: the concentration at 1 h in [1] worked out at 173 µM. The compound further displayed a concentration at 4 h in data set [2] of 22.1 µM. In [9], the Papp A→B amounted to 10 ×10⁻⁶ cm/s.

Regarding `CNC(=O)c1nc(-c2cccc(S(=O)(=O)Nc3cccc(F)c3F)c2)cnc1N`, the apical-to-basolateral permeability (Papp A→B) in data set [9] turned out to be 10 ×10⁻⁶ cm/s.

Compound `CNC(=O)c1nc(-c2ccc(Cl)c(S(=O)(=O)Nc3cccc(F)c3F)c2)cnc1N` had a half-life in data set [6] of 4.44 h. Moreover, the concentration at 4 h in data set [10] stood at 43.1 µM; in [2] it was 119 µM. In addition, the AUC(0-inf) in [7] was determined as 449 µM·h. Moreover, in [3], the solubility kinetic was 176 µM (≈ 79.9 µg/mL). In addition, in [1], the concentration at 1 h was found to be 333 µM. In data set [8], this compound gave a bioavailability of 76.7%. The Cmax (as a rule, the maximum level reached in the sampled fluid or tissue) in data set [11] was determined as 42.5 µM. The Papp A→B in data set [9] was found to be 55 ×10⁻⁶ cm/s.

`CNC(=O)c1nc(-c2ccc(Cl)c(S(=O)(=O)Nc3cccc(F)c3C)c2)cnc1N` showed a half-life in data set [6] of 2.08 h. In addition, the results for the concentration at 4 h in data set [10] and in data set [2] were 9.2 µM and 6.2 µM, respectively. Also, the AUC(0-inf) in [7] was 26.8 µM·h. Also, the concentration at 1 h in data set [1] amounted to 13.1 µM. Besides, the bioavailability in data set [8] turned out to be 66.2%. This compound displayed a Cmax in data set [11] of 9.1 µM. The Papp A→B in data set [9] was determined as 10 ×10⁻⁶ cm/s.

`Nc1cnc(-c2ccc(Cl)c(S(=O)(=O)Nc3cccc(F)c3F)c2)cn1`: the Papp A→B in [9] is 10 ×10⁻⁶ cm/s.

`Nc1ncc(-c2ccc(Cl)c(S(=O)(=O)Nc3cccc(F)c3F)c2)cn1`: in [9], the Papp A→B stood at 10 ×10⁻⁶ cm/s.

As to `COc1nc(N)ncc1-c1ccc(Cl)c(S(=O)(=O)Nc2cccc(F)c2F)c1`, the Papp A→B in data set [9] amounted to 10 ×10⁻⁶ cm/s.

For `Nc1ncc(-c2ccc(Cl)c(S(=O)(=O)Nc3cccc(F)c3F)c2)c(OCC(F)(F)F)n1`, the Papp A→B in data set [9] was 10 ×10⁻⁶ cm/s.

`CS(=O)(=O)N1CCN(Cc2cc3nc(-c4cccc5[nH]ncc45)nc(N4CCOCC4)c3s2)CC1` [PICTILISIB]: in [10], the concentration at 4 h turned out to be 5.3 µM.
